Patent publication US9315490B2, “2,5-substituted pyrimidines” (Grünenthal GmbH, priority 2014, dated 2016)

What was measured:
human PDE4B1 [1] = target: T1, human PDE4B1 (Homo sapiens, UniProt Q07343); assay: cAMP HTRF assay to determine the activity of hPDE4B1; assay type: biochemical; details: inhibition of PDE4B at a test concentration of 1 μM
T1 construct: host or cells: Sf9 cells
How it was run: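 Human recombinant PDE4B1 from Sf9 cells (4.8 U) in Tris-HCl, MgCl2, DTT, Tween 20 buffer at pH 7.8 with 40 nM cAMP (final), 30 min at room temperature. Reaction stopped with 1 mM IBMX; remaining cAMP detected by HTRF (665/620 nm ratio). IC50 from eight-concentration curves.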

human PDE4B1 [2] = target: T1, human PDE4B1; assay: TR-FRET assay using the LANCE Ultra cAMP kit to determine the activity of hPDE4B1; assay type: biochemical; details: read-out: Inhibition in % (inhibition of PDE4B); for inhibition at 10 µM: test concentration 10 μM (marked in cell); for inhibition at 1 µM: test concentration 1 μM
How it was run: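 Sf9-expressed recombinant human PDE4B1 (0.96 U) hydrolyses 500 nM cAMP for 30 minutes at room temperature in 50 mM Tris-HCl, 50 mM MgCl2, 5 mM DTT, pH 8.5. The reaction is stopped with IBMX, and residual cAMP is measured by TR-FRET (665/620 ratio). IC50 comes from ten concentrations.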

T1 sequence (Q07343 whole entry): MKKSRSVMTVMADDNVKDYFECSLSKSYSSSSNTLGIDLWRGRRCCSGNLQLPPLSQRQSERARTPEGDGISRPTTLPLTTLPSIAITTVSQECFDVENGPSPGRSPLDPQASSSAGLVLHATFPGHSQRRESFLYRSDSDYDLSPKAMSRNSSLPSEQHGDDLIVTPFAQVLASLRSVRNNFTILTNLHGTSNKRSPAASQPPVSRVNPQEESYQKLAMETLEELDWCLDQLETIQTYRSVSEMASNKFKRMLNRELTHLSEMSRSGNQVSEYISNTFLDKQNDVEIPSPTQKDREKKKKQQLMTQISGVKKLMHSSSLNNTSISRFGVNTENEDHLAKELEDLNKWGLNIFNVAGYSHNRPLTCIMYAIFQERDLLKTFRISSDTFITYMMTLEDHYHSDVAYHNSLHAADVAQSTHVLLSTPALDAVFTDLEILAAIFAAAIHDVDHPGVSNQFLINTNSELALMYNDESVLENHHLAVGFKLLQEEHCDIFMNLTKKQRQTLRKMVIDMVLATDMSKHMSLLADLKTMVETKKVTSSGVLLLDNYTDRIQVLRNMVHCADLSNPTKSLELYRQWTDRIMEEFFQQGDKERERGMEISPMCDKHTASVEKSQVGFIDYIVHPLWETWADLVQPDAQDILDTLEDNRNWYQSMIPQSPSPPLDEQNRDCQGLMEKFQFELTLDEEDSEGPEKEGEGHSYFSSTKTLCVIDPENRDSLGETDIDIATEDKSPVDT

inhibition at 1 µM (human PDE4B1 [1])	melting point	inhibition at 10 µM (human PDE4B1 [2])	inhibition at 1 µM (human PDE4B1 [2])	Structure (SMILES)
109%	267 to 270 °C	–	–	CS(=O)(=O)c1cn(-c2ncc(-c3ccccc3F)cn2)c2cc(C(=O)N3CCOCC3)ccc12 [Example 11, (1-(5-(2-Fluorophenyl)pyrimidin-2-yl)-3-(methylsulfonyl)-1H-indol-6-yl)(morpholino)methanone]
90%	256 to 258 °C	–	–	COC(=O)c1ccc(-c2cnc(-n3cc([S+](C)[O-])c4ccc(C(=O)N5CCOCC5)cc43)nc2)cc1 (stereo not shown) [Example 190, Methyl 4-(2-(3-(methylsulfinyl)-6-(morpholine-4-carbonyl)-1H-indol-1-yl)pyrimidin-5-yl)benzoate]
87%	244 to 248 °C	–	–	C[S+]([O-])c1cn(-c2ncc(-c3ccc(F)cn3)cn2)c2cc(C(=O)N3CCOCC3)ccc12 (stereo not shown) [Example 200, (1-(5-(5-Fluoropyridin-2-yl)pyrimidin-2-yl)-3-(methylsulfinyl)-1H-indol-6-yl)(morpholino)methanone]
115%	216 to 220 °C	–	–	COc1ccnc(-c2cnc(-n3cc([S+](C)[O-])c4ccc(C(=O)N5CCOCC5)cc43)nc2)c1 (stereo not shown) [Example 141, (1-(5-(4-Methoxypyridin-2-yl)pyrimidin-2-yl)-3-(methylsulfinyl)-1H-indol-6-yl)(morpholino)methanone]
–	280 to 283 °C	–	–	C[S+]([O-])c1cn(-c2ncc(-c3ncc(C#N)s3)cn2)c2cc(C(=O)N3CCOCC3)ccc12 (stereo not shown) [Example 207, 2-(2-(3-(Methylsulfinyl)-6-(morpholine-4-carbonyl)-1H-indol-1-yl)pyrimidin-5-yl)thiazole-5-carbonitrile]
33%	278 to 282 °C	–	–	C[S+]([O-])c1cn(-c2ncc(-c3ccnnc3)cn2)c2cc(C(=O)N3CCOCC3)ccc12 (stereo not shown) [Example 212, (3-(Methylsulfinyl)-1-(5-(pyridazin-4-yl)pyrimidin-2-yl)-1H-indol-6-yl)(morpholino)methanone]
46%	164 to 166 °C	–	–	CO[C@H]1CCN(C(=O)c2ccc3c([S+](C)[O-])cn(-c4ncc(-c5ccccc5F)cn4)c3c2)C1 (stereo partly drawn) [Example 172, (1-(5-(2-Fluorophenyl)pyrimidin-2-yl)-3-(methylsulfinyl)-1H-indol-6-yl)((S)-3-methoxypyrrolidin-1-yl)methanone]
76%	270 to 273 °C	–	–	COc1cccc(-c2cnc(-n3cc(S(C)(=O)=O)c4ccc(C(=O)N5CCNC(=O)C5)cc43)nc2)c1 [Example 153, 4-(1-(5-(3-Methoxyphenyl)pyrimidin-2-yl)-3-(methylsulfonyl)-1H-indole-6-carbonyl)piperazin-2-one]
50%	265 to 269 °C	–	–	CS(=O)(=O)c1cn(-c2ncc(-c3ccccc3C#N)cn2)c2cc(C(=O)N3CCOCC3)ccc12 [Example 8, 2-(2-(3-(Methylsulfonyl)-6-(morpholine-4-carbonyl)-1H-indol-1-yl)pyrimidin-5-yl)benzonitrile]
–	229 to 233 °C	–	–	CS(=O)(=O)c1cn(-c2ncc(-c3ccc(F)cc3F)cn2)c2cc(C(=O)N3CCNCC3)ccc12 [Example 23, (1-(5-(2,4-Difluorophenyl)pyrimidin-2-yl)-3-(methylsulfonyl)-1H-indol-6-yl)(piperazin-1-yl)methanone]
109%	162 to 165 °C	–	–	CCc1cccc(-c2cnc(-n3cc([S+](C)[O-])c4ccc(C(=O)N5CCOCC5)cc43)nc2)c1 (stereo not shown) [Example 189, (1-(5-(3-Ethylphenyl)pyrimidin-2-yl)-3-(methylsulfinyl)-1H-indol-6-yl)(morpholino)methanone]
86%	116 to 119 °C	–	–	CC(C)(O)c1cn(-c2ncc(-c3ccccc3F)cn2)c2cc(C(=O)N3CCOCC3)ccc12 [Example 184, (1-(5-(2-Fluorophenyl)pyrimidin-2-yl)-3-(2-hydroxypropan-2-yl)-1H-indol-6-yl)(morpholino)methanone]
94%	202 to 206 °C	–	–	C[S+]([O-])c1cn(-c2ncc(-c3ccc(C(N)=O)cc3F)cn2)c2cc(C(=O)N3CCOCC3)ccc12 (stereo not shown) [Example 19, 3-Fluoro-4-(2-(3-(methylsulfinyl)-6-(morpholine-4-carbonyl)-1H-indol-1-yl)pyrimidin-5-yl)benzamide]
104%	193 to 196 °C	–	–	C[S+]([O-])c1cn(-c2ncc(-c3cccc(CO)c3)cn2)c2cc(C(=O)N3CCOCC3)ccc12 (stereo not shown) [Example 188, (1-(5-(3-(Hydroxymethyl)phenyl)pyrimidin-2-yl)-3-(methylsulfinyl)-1H-indol-6-yl)(morpholino)methanone]
81%	222 to 225 °C	–	–	C[S+]([O-])c1cn(-c2ncc(-c3ncccc3F)cn2)c2cc(C(=O)N3CCOCC3)ccc12 (stereo not shown) [Example 201, (1-(5-(3-Fluoropyridin-2-yl)pyrimidin-2-yl)-3-(methylsulfinyl)-1H-indol-6-yl)(morpholino)methanone]
74%	277 to 281 °C	–	–	C[S+]([O-])c1cn(-c2ncc(-c3ccccc3C#N)cn2)c2cc(C(=O)N3CCOCC3)ccc12 (stereo not shown) [Example 20, 2-(2-(3-(Methylsulfinyl)-6-(morpholine-4-carbonyl)-1H-indol-1-yl)pyrimidin-5-yl)benzonitrile]
49%	241 to 244 °C	–	–	C[S+]([O-])c1cn(-c2ncc(-c3ccncc3F)cn2)c2cc(C(=O)N3CCOCC3)ccc12 (stereo not shown) [Example 150, (1-(5-(3-Fluoropyridin-4-yl)pyrimidin-2-yl)-3-(methylsulfinyl)-1H-indol-6-yl)(morpholino)methanone]
78%	235 to 239 °C	–	–	CS(=O)(=O)c1cn(-c2ncc(-c3ccccc3Cl)cn2)c2cc(C(=O)N3CCOCC3)ccc12 [Example 9, (1-(5-(2-Chlorophenyl)pyrimidin-2-yl)-3-(methylsulfonyl)-1H-indol-6-yl)(morpholino)methanone]
99%	288 to 290 °C	–	–	C[S+]([O-])c1cn(-c2ncc(-c3ccc(C(N)=O)cn3)cn2)c2cc(C(=O)N3CCOCC3)ccc12 (stereo not shown) [Example 199, 6-(2-(3-(Methylsulfinyl)-6-(morpholine-4-carbonyl)-1H-indol-1-yl)pyrimidin-5-yl)nicotinamide]
–	193 to 197 °C	–	–	CS(=O)(=O)c1cn(-c2ncc(-c3ccccc3C#N)cn2)c2cc(C(=O)N3CCNCC3)ccc12 [Example 25, 2-(2-(3-(Methylsulfonyl)-6-(piperazine-1-carbonyl)-1H-indol-1-yl)pyrimidin-5-yl)benzonitrile]
–	–	98%	–	CCc1ccc(F)c(-c2cnc(-n3cc(S(C)(=O)=O)c4ccc(C(=O)N(C)CC(N)=O)cc43)nc2)c1 [Example 311, N-(2-Amino-2-oxoethyl)-1-(5-(5-ethyl-2-fluorophenyl)pyrimidin-2-yl)-N-methyl-3-(methylsulfonyl)-1H-indole-6-carboxamide]
–	–	90%	–	CS(=O)(=O)c1cn(-c2ncc(-c3cc(C4CC4)ccn3)cn2)c2cc(C(=O)N3CCOCC3)ccc12 [Example 327, (1-(5-(4-Cyclopropylpyridin-2-yl)pyrimidin-2-yl)-3-(methylsulfonyl)-1H-indol-6-yl)(morpholino)methanone]
–	–	–	90%	Cc1ccnc(-c2cnc(-n3cc([S+](C)[O-])c4ccc(C(=O)N(C)CC(N)=O)cc43)nc2)c1 (stereo not shown) [Example 282, N-(2-Amino-2-oxoethyl)-N-methyl-1-(5-(4-methylpyridin-2-yl)pyrimidin-2-yl)-3-(methylsulfinyl)-1H-indole-6-carboxamide]
–	230 to 235 °C	–	–	C[S+]([O-])c1cn(-c2ncc(-c3ccccc3C#N)cn2)c2cc(C(=O)N3CCNCC3)ccc12 (stereo not shown) [Example 16, 2-(2-(3-(Methylsulfinyl)-6-(piperazine-1-carbonyl)-1H-indol-1-yl)pyrimidin-5-yl)benzonitrile]
–	–	97%	–	CS(=O)(=O)c1cn(-c2ncc(-c3ccccc3F)cn2)c2cc(C(=O)N3C[C@@H]4C[C@H]3CO4)ccc12 [Example 309, (1S,4S)-2-Oxa-5-azabicyclo[2.2.1]heptan-5-yl(1-(5-(2-fluorophenyl)pyrimidin-2-yl)-3-(methylsulfonyl)-1H-indol-6-yl)methanone]
–	–	–	92%	COc1ccnc(-c2cnc(-n3cc([S+](C)[O-])c4ccc(C(=O)N(C)CC(N)=O)cc43)nc2)c1 (stereo not shown) [Example 283, N-(2-Amino-2-oxoethyl)-1-(5-(4-methoxypyridin-2-yl)pyrimidin-2-yl)-N-methyl-3-(methylsulfinyl)-1H-indole-6-carboxamide]
–	–	–	93%	CCc1ccnc(-c2cnc(-n3cc([S+](C)[O-])c4ccc(C(=O)N5CCCC5)cc43)nc2)c1 (stereo not shown) [Example 277, (1-(5-(4-Ethylpyridin-2-yl)pyrimidin-2-yl)-3-(methylsulfinyl)-1H-indol-6-yl)(pyrrolidin-1-yl)methanone]
–	–	–	94%	C[S+]([O-])c1cn(-c2ncc(-c3cc(Cl)ccn3)cn2)c2cc(C(=O)N3CCOCC3)ccc12 (stereo not shown) [Example 299, (1-(5-(4-Chloropyridin-2-yl)pyrimidin-2-yl)-3-(methylsulfinyl)-1H-indol-6-yl)(morpholino)methanone]
–	–	93%	–	CS(=O)(=O)c1cn(-c2ncc(-c3cc(Cl)ccn3)cn2)c2cc(C(=O)N3CCOCC3)ccc12 [Example 312, (1-(5-(4-Chloropyridin-2-yl)pyrimidin-2-yl)-3-(methylsulfonyl)-1H-indol-6-yl)(morpholino)methanone]
